What all share (assay): Antibacterial activity, microbroth dilution method (MIC)
In general terms: Dilution methods test growth across graded concentrations, often in twofold steps.

Assay [1] relates to control Gram-negative E. coli 25922 strain. The class given is cell-based, Escherichia coli. To be noted: Escherichia coli. The method, boiled down: (§1)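 Values are MICs (μg/mL): the smallest drug amount at which macroscopically visible bacterial growth is absent under assay conditions, from a microdilution method in broth.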
For assay [2], the system named is Gram-positive Staphylococcus aureus (S. aureus) 29213. The class given is cell-based. To be noted: Staphylococcus aureus, Gram-positive S. aureus 29213. Put shortly: as §1
Assay [3] concerns super sensitive Gram-negative Escherichia coli (E. coli) BAS849. Type of assay: cell-based. To be noted: Escherichia coli, read-out: MIC, E. coli BAS849. The method, boiled down:
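Broth microdilution; endpoint = no macroscopic growth; value = lowest inhibiting concn, μg/mL.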

[4] abbreviates: super sensitive Gram-negative E. coli BAS849, microbroth dilution.

Structures can show the parent of a compound that is named as a salt. Where two headings read alike, the source gives them in different places.

Consider `CC(=O)NC1CCN(Cc2cc3cc4c(cc3n2C)CCCc2c-4[nH]c(=O)c(C(=O)O)c2O)C1.Cl` (stereo not drawn) [Cpd 159, 10-((3-acetamidopyrrolidin-1-yl)methyl)-4-hydroxy-9-methyl-2-oxo-1,2,5,6,7,9-hexahydropyrido[3′,2′:6,7]cyclohepta[1,2-f]indole-3-carboxylic acid hydrochloride], for which the minimal inhibitory concentration (MIC) in assay [1] is 3.5 to 12.5 µg/mL; in assay [2], 12.5 to 150 µg/mL; in assay [3] (setting [4]) it was below 1 µg/mL.
Take `CC(CN(C)C)NCc1cc2cc3c(cc2n1C)CCCc1c-3[nH]c(=O)c(C(=O)O)c1O.Cl.Cl` (stereo not drawn) [Cpd 160, 10-(((1-(dimethylamino)propan-2-yl)amino)methyl)-4-hydroxy-9-methyl-2-oxo-1,2,5,6,7,9-hexahydropyrido[3′,2′:6,7]cyclohepta[1,2-f]indole-3-carboxylic acid dihydrochloride]: the minimum inhibitory concentration (MIC) in assay [1] is 3.5 to 12.5 µg/mL; in assay [2], 12.5 to 150 µg/mL; in assay [3] (setting [4]), below 1 µg/mL.
In the case of `Cl.Cn1c(CNCC2CCCO2)cc2cc3c(cc21)CCCc1c-3[nH]c(=O)c(C(=O)O)c1O` (stereo not drawn) [Cpd 161, 4-hydroxy-9-methyl-2-oxo-10-((((tetrahydrofuran-2-yl)methyl)amino)methyl)-1,2,5,6,7,9-hexahydropyrido[3′,2′:6,7]cyclohepta[1,2-f]indole-3-carboxylic acid hydrochloride], the minimum inhibitory concentration (MIC) in assay [1] is 1 to 3.5 µg/mL; in assay [2], 12.5 to 150 µg/mL; in assay [3] (setting [4]), below 1 µg/mL.
On to `CN1CCC2CN(Cc3cc4cc5c(cc4n3C)CCCc3c-5[nH]c(=O)c(C(=O)O)c3O)CC21.Cl.Cl` (stereo not drawn) [Cpd 162, 4-hydroxy-9-methyl-10-((1-methylhexahydropyrrolo[3,4-b]pyrrol-5(1H)-yl)methyl)-2-oxo-1,2,5,6,7,9-hexahydropyrido[3′,2′:6,7]cyclohepta[1,2-f]indole-3-carboxylic acid dihydrochloride], for which the minimal inhibitory concentration (MIC) in assay [1] is 3.5 to 12.5 µg/mL; in assay [2] it was 12.5 to 150 µg/mL; in assay [3] (setting [4]), below 1 µg/mL.
In the case of `CN(C)C(=O)CNCc1cc2cc3c(cc2n1C)CCCc1c-3[nH]c(=O)c(C(=O)O)c1O.Cl` [Cpd 163, 10-(((2-(dimethylamino)-2-oxoethyl)amino)methyl)-4-hydroxy-9-methyl-2-oxo-1,2,5,6,7,9-hexahydropyrido[3′,2′:6,7]cyclohepta[1,2-f]indole-3-carboxylic acid hydrochloride], the minimum inhibitory concentration (MIC) in assay [1] is 3.5 to 12.5 µg/mL; in assay [2], 12.5 to 150 µg/mL; in assay [3] (setting [4]), below 1 µg/mL.
Take `CCNCCc1cc2cc3c(cc2n1C)C=CCc1c-3[nH]c(=O)c(C(=O)O)c1O.O=C(O)C(F)(F)F` [Cpd 164, 10-(2-(ethylamino)ethyl)-4-hydroxy-9-methyl-2-oxo-1,2,5,9-tetrahydropyrido[3′,2′:6,7]cyclohepta[1,2-f]indole-3-carboxylic acid trifluoroacetate]: the MIC in assay [1] is 1 to 3.5 µg/mL; in assay [2], 12.5 to 150 µg/mL; in assay [3], below 1 µg/mL.
For `CCNCCc1cc2cc3c(cc2n1C)CCCc1c-3[nH]c(=O)c(C(=O)O)c1O.O=C(O)C(F)(F)F` [Cpd 165, 10-(2-(ethylamino)ethyl)-4-hydroxy-9-methyl-2-oxo-1,2,5,6,7,9-hexahydropyrido[3′,2′:6,7]cyclohepta[1,2-f]indole-3-carboxylic acid trifluoroacetate], in that order: 1 to 3.5 µg/mL, 12.5 to 150 µg/mL and below 1 µg/mL.
Consider `O=C(O)c1c(O)c2c([nH]c1=O)-c1ccc(N[C@@H]3CC[C@H]4CNC[C@H]43)cc1OCC2` [Cpd 166, 4-hydroxy-9-(((cis)-octahydrocyclopenta[c]pyrrol-4-yl)-(cis)-amino)-2-oxo-1,2,5,6-tetrahydrobenzo[2,3]oxepino[4,5-b]pyridine-3-carboxylic acid hydrochloride], for which the MIC in assay [1], in assay [2] and in assay [3] (setting [4]) was 12.5 to 150 µg/mL each time.
On to `Cl.Cn1c(CNC2(C)CC2)cc2cc3c(cc21)OCCc1c-3[nH]c(=O)c(C(=O)O)c1O` [Cpd 167, 4-hydroxy-9-methyl-10-(((1-methylcyclopropyl)amino)methyl)-2-oxo-2,5,6,9-tetrahydro-1H-pyrido[2′,3′:4,5]oxepino[3,2-f]indole-3-carboxylic acid hydrochloride], for which the minimum inhibitory concentration (MIC) in assay [1] was below 1 µg/mL; in assay [2], 1 to 3.5 µg/mL; in assay [3] (setting [4]), below 1 µg/mL.
In the case of `CCC(C)NCc1cc2cc3c(cc2n1C)OCCc1c-3[nH]c(=O)c(C(=O)O)c1O.Cl` (stereo not drawn) [Cpd 168, 10-((sec-butylamino)methyl)-4-hydroxy-9-methyl-2-oxo-2,5,6,9-tetrahydro-1H-pyrido[2′,3′:4,5]oxepino[3,2-f]indole-3-carboxylic acid hydrochloride], the figures for the MIC in assay [1], in assay [2] and in assay [3] (setting [4]) were below 1 µg/mL, 3.5 to 12.5 µg/mL and below 1 µg/mL, respectively.
As to `CCCNCc1cc2cc3c(cc2n1C)OCCc1c-3[nH]c(=O)c(C(=O)O)c1O.Cl` [Cpd 169, 4-hydroxy-9-methyl-2-oxo-10-((propylamino)methyl)-2,5,6,9-tetrahydro-1H-pyrido[2′,3′:4,5]oxepino[3,2-f]indole-3-carboxylic acid hydrochloride], the MIC was below 1 µg/mL in assay [1], 3.5 to 12.5 µg/mL in assay [2] and below 1 µg/mL in assay [3] (setting [4]).
In the case of `COc1ccc(CNCc2cc3cc4c(cc3n2C)OCCc2c-4[nH]c(=O)c(C(=O)O)c2O)c(OC)c1.Cl` [Cpd 170, 10-(((2,4-dimethoxybenzyl)amino)methyl)-4-hydroxy-9-methyl-2-oxo-2,5,6,9-tetrahydro-1H-pyrido[2′,3′:4,5]oxepino[3,2-f]indole-3-carboxylic acid hydrochloride], the minimum inhibitory concentration (MIC) was 1 to 3.5 µg/mL in assay [1], 1 to 3.5 µg/mL in assay [2] and below 1 µg/mL in assay [3] (setting [4]).
Take `Cl.Cn1c(CNC2CC2)cc2cc3c(cc21)OCCc1c-3[nH]c(=O)c(C(=O)O)c1O` [Cpd 171, 10-((cyclopropylamino)methyl)-4-hydroxy-9-methyl-2-oxo-2,5,6,9-tetrahydro-1H-pyrido[2′,3′:4,5]oxepino[3,2-f]indole-3-carboxylic acid hydrochloride]: the MIC is below 1 µg/mL in assay [1], 3.5 to 12.5 µg/mL in assay [2] and below 1 µg/mL in assay [3] (setting [4]).
Consider `Cl.Cn1c(CNC2CCC2)cc2cc3c(cc21)OCCc1c-3[nH]c(=O)c(C(=O)O)c1O` [Cpd 172, 10-((cyclobutylamino)methyl)-4-hydroxy-9-methyl-2-oxo-2,5,6,9-tetrahydro-1H-pyrido[2′,3′:4,5]oxepino[3,2-f]indole-3-carboxylic acid hydrochloride], for which the minimal inhibitory concentration (MIC) in assay [1] was below 1 µg/mL; in assay [2] it was 3.5 to 12.5 µg/mL; in assay [3] (setting [4]), below 1 µg/mL.
Take `CN(C)Cc1cc2cc3c(cc2n1C)OCCc1c-3[nH]c(=O)c(C(=O)O)c1O.Cl` [Cpd 173, 10-((dimethylamino)methyl)-4-hydroxy-9-methyl-2-oxo-2,5,6,9-tetrahydro-1H-pyrido[2′,3′:4,5]oxepino[3,2-f]indole-3-carboxylic acid hydrochloride]: the minimal inhibitory concentration (MIC) in assay [1] was below 1 µg/mL; in assay [2], 12.5 to 150 µg/mL; in assay [3] (setting [4]) it was below 1 µg/mL.
`Cl.Cn1c(CN2CCCC2)cc2cc3c(cc21)OCCc1c-3[nH]c(=O)c(C(=O)O)c1O` [Cpd 174, 4-hydroxy-9-methyl-2-oxo-10-(pyrrolidin-1-ylmethyl)-2,5,6,9-tetrahydro-1H-pyrido[2′,3′:4,5]oxepino[3,2-f]indole-3-carboxylic acid hydrochloride]: the figures for the MIC in assay [1], in assay [2] and in assay [3] (setting [4]) were 1 to 3.5 µg/mL, 12.5 to 150 µg/mL and below 1 µg/mL, respectively.
In the case of `Cl.Cn1c(CNC(C)(C)C)cc2cc3c(cc21)OCCc1c-3[nH]c(=O)c(C(=O)O)c1O` [Cpd 175, 10-((tert-butylamino)methyl)-4-hydroxy-9-methyl-2-oxo-2,5,6,9-tetrahydro-1H-pyrido[2′,3′:4,5]oxepino[3,2-f]indole-3-carboxylic acid hydrochloride], the minimum inhibitory concentration (MIC) is below 1 µg/mL in assay [1], 3.5 to 12.5 µg/mL in assay [2] and below 1 µg/mL in assay [3] (setting [4]).
`CN1CCN(Cc2cc3cc4c(cc3n2C)OCCc2c-4[nH]c(=O)c(C(=O)O)c2O)CC1.Cl.Cl` [Cpd 176, 4-hydroxy-9-methyl-10-((4-methylpiperazin-1-yl)methyl)-2-oxo-2,5,6,9-tetrahydro-1H-pyrido[2′,3′:4,5]oxepino[3,2-f]indole-3-carboxylic acid dihydrochloride]: the figures for the MIC in assay [1], in assay [2] and in assay [3] (setting [4]) were 3.5 to 12.5 µg/mL, 12.5 to 150 µg/mL and below 1 µg/mL, respectively.
For the compound `Cl.Cn1c(CNCCO)cc2cc3c(cc21)OCCc1c-3[nH]c(=O)c(C(=O)O)c1O` [Cpd 177, 4-hydroxy-10-(((2-hydroxyethyl)amino)methyl)-9-methyl-2-oxo-2,5,6,9-tetrahydro-1H-pyrido[2′,3′:4,5]oxepino[3,2-f]indole-3-carboxylic acid hydrochloride], the MIC in assay [1] was 12.5 to 150 µg/mL; in assay [2], 12.5 to 150 µg/mL; in assay [3] (setting [4]) it was below 1 µg/mL.
Regarding `CC(CO)NCc1cc2cc3c(cc2n1C)OCCc1c-3[nH]c(=O)c(C(=O)O)c1O.Cl` (stereo not drawn) [Cpd 178, 4-hydroxy-10-(((1-hydroxypropan-2-yl)amino)methyl)-9-methyl-2-oxo-2,5,6,9-tetrahydro-1H-pyrido[2′,3′:4,5]oxepino[3,2-f]indole-3-carboxylic acid hydrochloride], the minimal inhibitory concentration (MIC) is 12.5 to 150 µg/mL in assay [1], 12.5 to 150 µg/mL in assay [2] and below 1 µg/mL in assay [3] (setting [4]).
Regarding `Cl.Cl.Cn1c(CNCCN2CCCC2)cc2cc3c(cc21)OCCc1c-3[nH]c(=O)c(C(=O)O)c1O` [Cpd 179, 4-hydroxy-9-methyl-2-oxo-10-(((2-(pyrrolidin-1-yl)ethyl)amino)methyl)-2,5,6,9-tetrahydro-1H-pyrido[2′,3′:4,5]oxepino[3,2-f]indole-3-carboxylic acid dihydrochloride], the MIC in assay [1], in assay [2] and in assay [3] (setting [4]) was 12.5 to 150 µg/mL each time.

Broadly, the MIC is the smallest concentration in the dilution series that meets the test's criterion for growth inhibition.

These data come from patent US20150038438A1, “ANTIBACTERIAL COMPOUNDS AND METHODS FOR USE” (PTC THERAPEUTICS, INC., priority 2011, published 2015).
